Results taken from article PMC6338741 (Nature Communications, 2019).

Assays:
[1] = biological target: TDCEFM (Enterococcus faecium, UniProt Q3Y2S5); assay: IC50 curves with carbidopa as inhibitor, levodopa as substrate; format: biochemical, Enterococcus faecium W54
[2] = biological target: bacterial TDCs versus human DOPA decarboxylase; assay: Comparison of the inhibitory constants (Ki^TDC/Ki^DDC); format: biochemical; conditions: over the three bacterial TDCs
Description: (§1) Enzyme kinetics were performed in 200 mM potassium acetate buffer containing 0.1 mM PLP (pyridoxal-5-phosphate, P9255, Sigma, The Netherlands) and 10 nM of enzyme at pH 5 for TDCEFS and TDCEFM, and pH 4.5 for ^PTDCEFM. […] Michaelis–Menten kinetic curves were fitted using GraphPad Prism 7. […] Reactions were stopped with 0.7% HClO4, filtered and analyzed on the HPLC-ED-system described below.

[3] = test system: E. faecalis v583; assay: Levodopa decarboxylation by stationary batch cultures co-incubated with human DOPA decarboxylase inhibitors; conditions: E. faecalis v583, OD600 ~2.0, stationary phase, 15 min, 100 µM levodopa, equimolar or 21.7 µM carbidopa
[4] = test system: E. faecium W54; assay: as above; conditions: E. faecium W54, OD600 ~2.0, stationary phase, 15 min, 100 µM levodopa, equimolar or 21.7 µM carbidopa
[5] = biological target: T1, human DOPA decarboxylase (DDC) (Homo sapiens, UniProt P20711); assay: IC50 curves with carbidopa as inhibitor, levodopa as substrate; format: biochemical
T1 construct: 6xHis; host or cells: Escherichia coli BL21 (DE3)
T1 sequence (P20711 1-480): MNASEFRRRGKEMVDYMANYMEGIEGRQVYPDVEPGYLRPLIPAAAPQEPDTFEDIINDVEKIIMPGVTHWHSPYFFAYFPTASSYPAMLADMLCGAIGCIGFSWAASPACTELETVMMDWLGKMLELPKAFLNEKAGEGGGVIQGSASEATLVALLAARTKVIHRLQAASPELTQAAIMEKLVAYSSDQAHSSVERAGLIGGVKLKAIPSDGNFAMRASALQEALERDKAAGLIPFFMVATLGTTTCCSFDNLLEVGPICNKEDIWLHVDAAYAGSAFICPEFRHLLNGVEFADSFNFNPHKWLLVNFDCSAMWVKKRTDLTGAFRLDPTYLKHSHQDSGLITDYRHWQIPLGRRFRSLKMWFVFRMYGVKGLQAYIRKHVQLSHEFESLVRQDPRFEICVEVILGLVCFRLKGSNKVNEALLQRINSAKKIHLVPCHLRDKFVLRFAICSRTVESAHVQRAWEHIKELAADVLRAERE

[6] = biological target: T2, ^PTDCEFM (Enterococcus faecium, UniProt A0A481NV25); assay: as above; format: biochemical, Enterococcus faecium W54
T2 construct: 6xHis; made in house; host or cells: Escherichia coli BL21 (DE3), plasmid pSK22 (pET15b)

[7] = biological target: T3, TDCEFS (Enterococcus faecalis, UniProt Q838D6); assay: as above; format: biochemical, Enterococcus faecalis v583
T3 construct: 6xHis; made in house; host or cells: Escherichia coli BL21 (DE3), plasmid pSK18 (pET15b)

[8] = test system: TDCEFM (tyrosine decarboxylase from E. faecium W54); assay: Michaelis–Menten enzyme kinetics of purified tyrosine decarboxylase; format: biochemical, Enterococcus faecium W54
Text: (§2) To further characterize the substrate specificity and kinetic parameters of the bacterial TDCs, tdc genes from E. faecalis v583 (TDCEFS) and E. faecium W54 (TDCEFM and ^PTDCEFM) were expressed in Escherichia coli BL21 (DE3) and then purified.
(§3) The human DOPA decarboxylase gene cloned in pET15b was ordered from GenScript (Piscataway, USA) (Supplementary Table 6). TDC-encoding genes from E. faecalis v583 (TDCEFS, accession: EOT87933), E. faecium W54 (TDCEFM, accession: MH358385; ^PTDCEFM, accession: MH358384) were amplified using Phusion High-fidelity DNA polymerase and primers listed in Supplementary Table 8. All amplified genes were cloned in pET15b, resulting in pSK18, pSK11, and pSK22, respectively (Supplementary Table 6). Plasmids were maintained in E. coli DH5α and verified by Sanger sequencing before transformation to E. coli BL21 (DE3). Overnight cultures were diluted 1:50 in fresh LB medium with the appropriate antibiotic and grown to OD600 = 0.7–0.8. Protein translation was induced with 1 mM Isopropyl β-D-1-thiogalactopyranoside (IPTG, 11411446001, Roche Diagnostics) and cultures were incubated overnight at 18 °C. The cells were washed with 1/5th of 1 × ice-cold PBS and stored at −80 °C or directly used for protein isolation. Cell pellets were thawed on ice and resuspended in 1/50th of buffer A (300 mM NaCl; 10 mM imidazole; 50 mM KPO4, pH 7.5) containing 0.2 mg/mL lysozyme (105281, Merck) and 2 µg/mL DNAse (11284932001, Roche Diagnostics), and incubated for at least 10 min on ice before sonication (10 cycles of 15 s with 30 s cooling at 8 microns amplitude) using Soniprep-150 plus (Beun de Ronde, Abcoude, The Netherlands). Cell debris were removed by centrifugation at 20,000 × g for 20 min at 4 °C. The 6 × his-tagged proteins were purified using a nickel-nitrilotriacetic acid (Ni-NTA) agarose matrix (30250, Qiagen). Cell-free extracts were loaded on 0.5 ml Ni-NTA matrixes and incubated on a roller shaker for 2 h at 4 °C. The Ni-NTA matrix was washed three times with 1.5 ml buffer B (300 mM NaCl; 20 mM imidazole; 50 mM KPO4, pH 7.5) before elution with buffer C (300 mM NaCl; 250 mM imidazole; 50 mM KPO4, pH 7.5). Imidazole was removed from purified protein fractions using Amicon Ultra centrifugal filters (UFC505024, Merck) and washed three times and reconstituted in buffer D (50 mM Tris-HCL; 300 mM NaCl; pH 7.5) for TDCEFS, and TDCEFM, buffer E (100 mM KPO4; pH 7.4) for ^PTDCEFM and buffer F (100 mM KPO4; 0.1 mM pyridoxal-5-phosphate; pH 7.4) for DDC. Protein concentrations were measured spectrophotometrically (Nanodrop 2000, Isogen, De Meern, The Netherlands) using the predicted extinction coefficient and molecular weight from ExPASy ProtParam tool (www.web.expasy.org/protparam/).
as §1

[9] = test system: L. brevis W63; assay: Bacterial cultures incubated anaerobically with levodopa, HPLC-ED; conditions: L. brevis W63, overnight culture, anaerobic, 37 °C, 100 µM levodopa
[10] = test system: T4, ^PTDCEFM (paralogous tyrosine decarboxylase from E. faecium W54); assay: Michaelis–Menten enzyme kinetics of purified paralogous tyrosine decarboxylase; format: biochemical, Enterococcus faecium W54
T4 construct: 6xHis; made in house; host or cells: Escherichia coli BL21 (DE3), plasmid pSK22 (pET15b)
Text: as §2, §3, §1

[11] = test system: E. faecalis v583; assay: Bacterial cultures incubated anaerobically with levodopa, HPLC-ED; format: cell-based, Enterococcus faecalis v583; conditions: E. faecalis v583 (enterococcal isolates), overnight culture, anaerobic, 37 °C, 100 µM levodopa
[12] = test system: T5, TDCEFS (tyrosine decarboxylase from E. faecalis v583); assay: Michaelis–Menten enzyme kinetics of purified tyrosine decarboxylase; format: biochemical, Enterococcus faecalis v583
T5 construct: 6xHis; made in house; host or cells: Escherichia coli BL21 (DE3), plasmid pSK18 (pET15b)
Text: as §2, §3, §1

[13] = test system: E. faecium W54; assay: Bacterial cultures incubated anaerobically with levodopa, HPLC-ED; format: cell-based, Enterococcus faecium W54; conditions: E. faecium W54 (enterococcal isolates), overnight culture, anaerobic, 37 °C, 100 µM levodopa
[14] = substrate: N[C@@H](Cc1ccc(O)c(O)c1)C(=O)O; assay: purified protein, by the assay type; conditions: other: DDC, levodopa as substrate, as used for Ki
[15] = pH 5.0, 10 nM enzyme, substance as substrate
[16] = ^PTDCEFM, pH 4.5, 10 nM enzyme, substance as substrate
[17] = levodopa as substrate, as used for Ki

TDCEFM, sequence (Q3Y2S5 entry or part of it): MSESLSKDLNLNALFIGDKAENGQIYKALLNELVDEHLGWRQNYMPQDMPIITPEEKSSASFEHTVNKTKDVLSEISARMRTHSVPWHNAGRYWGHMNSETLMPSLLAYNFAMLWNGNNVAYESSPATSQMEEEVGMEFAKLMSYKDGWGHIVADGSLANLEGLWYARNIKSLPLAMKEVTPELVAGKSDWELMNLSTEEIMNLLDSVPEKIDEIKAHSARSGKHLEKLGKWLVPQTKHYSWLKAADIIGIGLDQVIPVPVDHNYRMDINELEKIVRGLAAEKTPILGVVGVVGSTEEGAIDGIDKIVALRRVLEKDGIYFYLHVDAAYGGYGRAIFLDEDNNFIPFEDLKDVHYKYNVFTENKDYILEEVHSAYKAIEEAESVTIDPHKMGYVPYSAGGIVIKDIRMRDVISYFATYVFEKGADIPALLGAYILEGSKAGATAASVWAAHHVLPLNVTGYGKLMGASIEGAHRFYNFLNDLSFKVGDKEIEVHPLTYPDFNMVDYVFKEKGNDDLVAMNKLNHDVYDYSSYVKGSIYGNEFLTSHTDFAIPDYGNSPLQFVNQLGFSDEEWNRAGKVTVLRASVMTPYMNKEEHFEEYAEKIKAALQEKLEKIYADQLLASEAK
T2 sequence (A0A481NV25 whole entry): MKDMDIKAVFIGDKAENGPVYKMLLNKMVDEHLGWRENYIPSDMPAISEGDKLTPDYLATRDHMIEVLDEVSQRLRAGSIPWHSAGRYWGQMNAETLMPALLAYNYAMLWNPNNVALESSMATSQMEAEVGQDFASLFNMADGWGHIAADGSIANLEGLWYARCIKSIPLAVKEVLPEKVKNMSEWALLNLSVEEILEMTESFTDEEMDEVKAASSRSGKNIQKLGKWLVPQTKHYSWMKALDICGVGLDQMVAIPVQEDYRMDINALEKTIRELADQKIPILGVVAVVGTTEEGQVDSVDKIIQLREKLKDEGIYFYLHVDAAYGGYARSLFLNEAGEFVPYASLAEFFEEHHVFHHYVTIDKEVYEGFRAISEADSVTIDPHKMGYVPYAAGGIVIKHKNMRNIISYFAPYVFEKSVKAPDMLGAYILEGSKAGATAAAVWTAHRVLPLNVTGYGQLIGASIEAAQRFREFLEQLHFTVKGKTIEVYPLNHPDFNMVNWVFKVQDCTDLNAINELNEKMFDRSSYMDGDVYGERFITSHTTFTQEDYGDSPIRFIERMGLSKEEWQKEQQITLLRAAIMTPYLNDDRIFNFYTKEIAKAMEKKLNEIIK
T3 sequence (Q838D6 whole entry): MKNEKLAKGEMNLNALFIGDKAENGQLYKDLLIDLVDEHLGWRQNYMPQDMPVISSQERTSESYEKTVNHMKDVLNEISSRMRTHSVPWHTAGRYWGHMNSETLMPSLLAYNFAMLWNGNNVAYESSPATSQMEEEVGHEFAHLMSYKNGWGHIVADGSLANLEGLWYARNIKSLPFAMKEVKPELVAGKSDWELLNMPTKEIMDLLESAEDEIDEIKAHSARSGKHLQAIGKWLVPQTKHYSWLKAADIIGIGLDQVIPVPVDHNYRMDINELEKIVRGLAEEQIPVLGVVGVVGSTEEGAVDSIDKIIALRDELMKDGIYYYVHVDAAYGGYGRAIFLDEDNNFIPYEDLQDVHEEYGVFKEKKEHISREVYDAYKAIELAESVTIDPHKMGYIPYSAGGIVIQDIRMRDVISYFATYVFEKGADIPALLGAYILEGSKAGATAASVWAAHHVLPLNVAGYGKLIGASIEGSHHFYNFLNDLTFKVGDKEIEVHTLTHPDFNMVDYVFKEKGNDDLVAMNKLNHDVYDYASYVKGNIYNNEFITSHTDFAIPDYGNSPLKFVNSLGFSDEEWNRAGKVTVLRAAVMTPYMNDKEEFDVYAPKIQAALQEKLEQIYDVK

C[C@@](Cc1ccc(O)c(O)c1)(NN)C(=O)O [carbidopa]
IC50 [1]: 79.2 µM
HillSlope ([1]; TDCEFM, IC50 curve): 1.3
[IC50]/[s] ([1]; TDCEFM, [S] levodopa 1000 µM): 8%
Ki ([1]; read-out: Ki=IC50/(1+([S]/Km))): 69.6 µM
Ki^TDC/Ki^DDC, times more potent inhibitor of human DOPA decarboxylase than bacterial TDCs [2]: 1.4–1.9 × 10^4
levodopa conversion by batch culture on co-incubation with carbidopa [3]: unaffected
levodopa conversion by batch culture on co-incubation with carbidopa [4]: unaffected
IC50 [5]: 0.01 µM
HillSlope ([5]; DDC, IC50 curve): 1.16
[IC50]/[s] ([5]; DDC, [S] levodopa 100 µM): 0.01%
Ki ([5]; read-out: Ki=IC50/(1+([S]/Km))): 0.005 µM
IC50 [6]: 201 µM
HillSlope ([6]; PTDCEFM, IC50 curve): 1.1
[IC50]/[s] ([6]; PTDCEFM, [S] levodopa 500 µM): 40%
Ki ([6]; read-out: Ki=IC50/(1+([S]/Km))): 95.1 µM
IC50 [7]: 93.8 µM
HillSlope ([7]; TDCEFS, IC50 curve): 1.6
[IC50]/[s] ([7]; TDCEFS, [S] levodopa 1000 µM): 9%
Ki ([7]; read-out: Ki=IC50/(1+([S]/Km))): 70.6 µM

N[C@@H](Cc1ccc(O)cc1)C(=O)O [tyrosine, L-tyrosine]
Kcat [8, 15]: 36.73 ± 4.12 s⁻¹
Km [8, 15]: 1500 ± 300 µM
Vmax [8, 15]: 22 ± 2.5 µM/min
conversion of tyrosine and levodopa into tyramine and dopamine by the culture [9]: able to convert
Kcat [10, 16]: 7.26 ± 0.32 s⁻¹
Km [10, 16]: 200 ± 50 µM
Vmax [10, 16]: 4.4 ± 0.2 µM/min
conversion of tyrosine and levodopa into tyramine and dopamine by the culture [11]: able to convert
Kcat [12, 15]: 116 ± 4.8 s⁻¹
Km [12, 15]: 600 ± 100 µM
Vmax [12, 15]: 69.6 ± 2.9 µM/min
conversion of tyrosine and levodopa into tyramine and dopamine by the culture [13]: able to convert

N[C@@H](Cc1ccc(O)c(O)c1)C(=O)O [levodopa, L-3,4-dihydroxyphenylalanine]
Km [8, 17]: 7240 µM
Kcat [8, 15]: 42.48 ± 2.22 s⁻¹
Km [8, 15]: 7200 ± 800 µM
Vmax [8, 15]: 25.5 ± 1.3 µM/min
Km ([10]; PTDCEFM, levodopa as substrate, as used for Ki): 448 µM
Kcat [10, 16]: 5.707 ± 0.35 s⁻¹
Km [10, 16]: 400 ± 100 µM
Vmax [10, 16]: 3.4 ± 0.2 µM/min
Km [12, 17]: 3040 µM
Kcat [12, 15]: 58.85 ± 2.28 s⁻¹
Km [12, 15]: 3000 ± 400 µM
Vmax [12, 15]: 35.3 ± 1.4 µM/min

B1: human DOPA decarboxylase (DDC) (Homo sapiens) (protein)
chain: MNASEFRRRGKEMVDYMANYMEGIEGRQVYPDVEPGYLRPLIPAAAPQEPDTFEDIINDVEKIIMPGVTHWHSPYFFAYFPTASSYPAMLADMLCGAIGCIGFSWAASPACTELETVMMDWLGKMLELPKAFLNEKAGEGGGVIQGSASEATLVALLAARTKVIHRLQAASPELTQAAIMEKLVAYSSDQAHSSVERAGLIGGVKLKAIPSDGNFAMRASALQEALERDKAAGLIPFFMVATLGTTTCCSFDNLLEVGPICNKEDIWLHVDAAYAGSAFICPEFRHLLNGVEFADSFNFNPHKWLLVNFDCSAMWVKKRTDLTGAFRLDPTYLKHSHQDSGLITDYRHWQIPLGRRFRSLKMWFVFRMYGVKGLQAYIRKHVQLSHEFESLVRQDPRFEICVEVILGLVCFRLKGSNKVNEALLQRINSAKKIHLVPCHLRDKFVLRFAICSRTVESAHVQRAWEHIKELAADVLRAERE
Km [14]: 87.3 µM
